Test results as given in paper PMC9653795, “Structure-Guide Design and Optimization of Potential Druglikeness Inhibitors for TGFβRI with the Pyrrolopyrimidine Scaffold” (Pharmaceuticals, 2022).

Molecular target: T1, TGFβRI (Homo sapiens, UniProt P36897)
T1 construct: gene TGFBR1
T1 sequence (P36897 34-503): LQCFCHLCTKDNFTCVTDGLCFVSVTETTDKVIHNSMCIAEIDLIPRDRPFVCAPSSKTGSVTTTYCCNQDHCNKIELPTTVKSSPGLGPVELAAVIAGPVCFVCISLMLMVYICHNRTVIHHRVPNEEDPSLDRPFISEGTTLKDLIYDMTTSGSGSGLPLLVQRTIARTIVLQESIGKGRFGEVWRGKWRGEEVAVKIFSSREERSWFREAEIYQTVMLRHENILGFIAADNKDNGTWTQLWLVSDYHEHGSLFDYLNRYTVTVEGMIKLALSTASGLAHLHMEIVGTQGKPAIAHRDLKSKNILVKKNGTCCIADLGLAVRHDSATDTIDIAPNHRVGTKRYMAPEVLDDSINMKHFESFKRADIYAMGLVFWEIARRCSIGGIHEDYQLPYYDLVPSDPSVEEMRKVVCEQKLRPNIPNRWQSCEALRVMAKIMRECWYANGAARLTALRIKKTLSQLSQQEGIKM
Assay: ADP-Glo kinase assay
Format: biochemical

- IC50: 10.8 µM
Compound: CC(C)(O)CNc1nc(Nc2ccncc2F)nc(-c2cccc(C(F)(F)F)n2)n1 [W8, 1-((4-((3-Fluoropyridin-4-yl)Amino)-6-(6-(Trifluoromethyl)Pyridin-2-yl)-1,3,5-Triazin-2-yl)Amino)-2-Methylpropan-2-ol]
